The target in data set [1] is T1, Phosphatidylinositol 4,5-bisphosphate 3-kinase catalytic subunit delta isoform (Homo sapiens, UniProt O00329).
T1 sequence (O00329 whole entry): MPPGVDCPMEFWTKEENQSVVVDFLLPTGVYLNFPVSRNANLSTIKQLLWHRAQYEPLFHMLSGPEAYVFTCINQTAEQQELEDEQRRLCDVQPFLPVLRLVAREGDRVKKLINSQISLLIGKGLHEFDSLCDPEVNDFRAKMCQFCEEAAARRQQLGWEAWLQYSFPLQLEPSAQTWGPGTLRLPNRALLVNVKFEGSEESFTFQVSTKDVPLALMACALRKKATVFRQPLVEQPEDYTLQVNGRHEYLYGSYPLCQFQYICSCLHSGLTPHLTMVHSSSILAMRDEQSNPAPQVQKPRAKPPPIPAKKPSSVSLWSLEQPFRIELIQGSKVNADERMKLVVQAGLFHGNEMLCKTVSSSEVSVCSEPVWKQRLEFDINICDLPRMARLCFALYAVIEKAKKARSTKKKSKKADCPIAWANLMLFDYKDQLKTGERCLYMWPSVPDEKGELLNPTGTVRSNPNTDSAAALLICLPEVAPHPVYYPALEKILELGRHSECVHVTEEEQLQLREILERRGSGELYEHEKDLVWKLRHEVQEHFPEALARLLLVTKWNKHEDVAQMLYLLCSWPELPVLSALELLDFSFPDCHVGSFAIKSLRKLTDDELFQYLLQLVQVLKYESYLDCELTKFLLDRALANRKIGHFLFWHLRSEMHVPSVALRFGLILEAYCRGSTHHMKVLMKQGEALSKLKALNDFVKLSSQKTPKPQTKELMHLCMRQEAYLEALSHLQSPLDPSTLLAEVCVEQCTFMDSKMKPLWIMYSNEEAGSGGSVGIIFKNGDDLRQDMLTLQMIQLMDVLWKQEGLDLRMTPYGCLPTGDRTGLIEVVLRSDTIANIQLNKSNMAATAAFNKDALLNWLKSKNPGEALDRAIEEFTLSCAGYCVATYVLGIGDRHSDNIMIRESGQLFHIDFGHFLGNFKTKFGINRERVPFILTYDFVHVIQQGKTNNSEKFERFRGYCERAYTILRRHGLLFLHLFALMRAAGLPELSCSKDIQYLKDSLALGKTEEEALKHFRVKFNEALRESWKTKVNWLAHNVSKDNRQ
Briefly: Inhibition of PI3Kdelta (unknown origin) assessed as formation of PIP3 by competitive fluorescence polarization assay. The following applies: read-out: Ki(app).

Data set [2] in a line: Genotoxicity in human lymphocytes assessed as chromosome aberration. Format: toxicity, cell-based. The following applies: lymphocyte.
For the next data set, the system named is CHO-K1. Briefly: Genotoxicity in CHOK1 cells by micronucleus assay. Format: toxicity, cell-based, Cricetulus griseus. The settings on record: chinese hamster.
Data set [3] addresses T1, Phosphatidylinositol 4,5-bisphosphate 3-kinase catalytic subunit delta isoform. Briefly: Inhibition of PI3Kdelta in human whole blood assessed as expression of CD69 in B cell preincubated for 1 hr by flow cytometry. Format: tissue-based. (In general: A flow cytometer gives signals particle by particle.)
The nature of data set [4]: Cmax in dog at 2 mg/kg, po. Format: ADME, organism-based, Canis lupus familiaris. On the set-up: dose 2 mg/kg, route oral. The following applies: in vivo.
The nature of data set [5]: Half life in rat at 1 mg/kg, iv. It counts as ADME, organism-based. On the set-up: dose 1 mg/kg, route intravenous. The settings on record: in vivo.
Data set [6] can be described thus: Clearance in rat at 1 mg/kg, iv. Also noted: dose 1 mg/kg, route intravenous. It counts as ADME, organism-based. The following applies: in vivo.
Data set [7] can be described thus: Genotoxicity in human lymphocytes assessed as chromosome aberration at […] relative to control. The following applies: lymphocyte. It counts as toxicity, cell-based.
The nature of data set [8]: Cmax in dog at 10 mg/kg, po. Format: ADME, organism-based, Canis lupus familiaris. On the set-up: dose 10 mg/kg, route oral. The settings on record: in vivo.
A short description of data set [9]: Oral bioavailability in dog at 2 mg/kg. It counts as ADME, organism-based, Canis lupus familiaris. The settings on record: in vivo.
A short description of data set [10]: Oral bioavailability in rat at 5 mg/kg. The settings on record: in vivo. It counts as ADME, organism-based.
Data set [11] is described as follows: Half life in dog at 1 mg/kg, iv. Also noted: dose 1 mg/kg, route intravenous. The following applies: in vivo. Format: ADME, organism-based, Canis lupus familiaris.
The nature of data set [12]: Plasma protein binding in dog. Format: ADME, cell-free, Canis lupus familiaris. The settings on record: read-out: PPB (converted).
Data set [13] in a line: Clearance in dog at 1 mg/kg, iv. It counts as ADME, organism-based, Canis lupus familiaris. Also noted: dose 1 mg/kg, route intravenous. The settings on record: in vivo.
Data set [14] has as its target Serine/threonine-protein kinase B-raf (Homo sapiens) (UniProt P15056). Briefly: Inhibition of B-Raf (unknown origin) at 1 uM.
Data set [15] in a line: AUC in rat at 5 mg/kg, po. Format: ADME, organism-based. On the set-up: dose 5 mg/kg, route oral. The following applies: plasma.
The target in data set [16] is Phosphatidylinositol 4-kinase beta (Homo sapiens) (UniProt Q9UBF8). Nature of the data set: Inhibition of PI4Kb (unknown origin) at 1 uM.
Sequence of Phosphatidylinositol 4-kinase beta (Homo sapiens) (Q9UBF8 2-816 limits assumed): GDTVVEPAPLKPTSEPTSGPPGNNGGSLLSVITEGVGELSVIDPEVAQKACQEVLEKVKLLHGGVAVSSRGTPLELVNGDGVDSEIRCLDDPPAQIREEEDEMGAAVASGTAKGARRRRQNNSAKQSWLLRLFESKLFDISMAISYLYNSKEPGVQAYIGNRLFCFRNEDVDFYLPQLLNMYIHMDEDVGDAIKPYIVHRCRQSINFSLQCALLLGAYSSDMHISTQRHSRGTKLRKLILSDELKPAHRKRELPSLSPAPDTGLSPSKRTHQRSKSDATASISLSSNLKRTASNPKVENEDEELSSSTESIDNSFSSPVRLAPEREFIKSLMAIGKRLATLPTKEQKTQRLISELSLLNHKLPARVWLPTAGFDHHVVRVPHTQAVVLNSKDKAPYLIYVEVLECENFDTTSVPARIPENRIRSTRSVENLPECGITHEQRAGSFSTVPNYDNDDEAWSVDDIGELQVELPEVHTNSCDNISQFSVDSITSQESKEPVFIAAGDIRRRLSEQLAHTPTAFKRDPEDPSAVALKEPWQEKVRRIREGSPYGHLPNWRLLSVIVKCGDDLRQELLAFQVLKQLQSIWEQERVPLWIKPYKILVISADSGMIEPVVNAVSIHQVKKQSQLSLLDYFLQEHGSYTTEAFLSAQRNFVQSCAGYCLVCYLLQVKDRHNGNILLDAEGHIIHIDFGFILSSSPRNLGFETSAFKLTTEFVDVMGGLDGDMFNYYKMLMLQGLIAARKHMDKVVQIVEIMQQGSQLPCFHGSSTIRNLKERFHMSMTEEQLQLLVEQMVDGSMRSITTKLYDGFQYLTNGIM
Data set [17] can be described thus: Volume of distribution at steady state in rat at 1 mg/kg, iv. It counts as ADME, organism-based. Also noted: dose 1 mg/kg, route intravenous. The following applies: in vivo, read-out: Vdss.
The nature of data set [18]: Volume of distribution at steady state in dog at 1 mg/kg, iv. It counts as ADME, organism-based, Canis lupus familiaris. On the set-up: dose 1 mg/kg, route intravenous. The settings on record: in vivo, read-out: Vdss.
The nature of data set [19]: Cmax in rat at 5 mg/kg, po. Format: ADME, organism-based. Also noted: dose 5 mg/kg, route oral. The following applies: in vivo.
A short description of data set [20]: AUC in dog at 10 mg/kg, po. On the set-up: dose 10 mg/kg, route oral. The following applies: plasma. It counts as ADME, organism-based, Canis lupus familiaris.
Data set [21] in a line: Oral bioavailability in dog at 10 mg/kg. The following applies: in vivo. It counts as ADME, organism-based, Canis lupus familiaris.
Data set [22] can be described thus: Genotoxicity in human lymphocytes assessed as mitotic index at […] (reference value: 11.1). Format: toxicity, cell-based. The settings on record: lymphocyte.
Data set [23] can be described thus: Plasma protein binding in rat. The following applies: read-out: PPB (converted). Format: ADME, cell-free.
Data set [24] in a line: AUC in dog at 2 mg/kg, po. The settings on record: plasma. Also noted: dose 2 mg/kg, route oral. Format: ADME, organism-based, Canis lupus familiaris.
Data set [25] concerns the target Maternal embryonic leucine zipper kinase (Homo sapiens) (UniProt Q14680). Briefly: Inhibition of MELK (unknown origin) at 10 uM.
Data set [26] concerns Serine/threonine-protein kinase B-raf (Homo sapiens), P15056 [V600E]. Briefly: Inhibition of B-Raf V599E mutant (unknown origin) at 10 uM.
Sequence of Serine/threonine-protein kinase B-raf (Homo sapiens), P15056 [V600E] (P15056 whole entry V600E): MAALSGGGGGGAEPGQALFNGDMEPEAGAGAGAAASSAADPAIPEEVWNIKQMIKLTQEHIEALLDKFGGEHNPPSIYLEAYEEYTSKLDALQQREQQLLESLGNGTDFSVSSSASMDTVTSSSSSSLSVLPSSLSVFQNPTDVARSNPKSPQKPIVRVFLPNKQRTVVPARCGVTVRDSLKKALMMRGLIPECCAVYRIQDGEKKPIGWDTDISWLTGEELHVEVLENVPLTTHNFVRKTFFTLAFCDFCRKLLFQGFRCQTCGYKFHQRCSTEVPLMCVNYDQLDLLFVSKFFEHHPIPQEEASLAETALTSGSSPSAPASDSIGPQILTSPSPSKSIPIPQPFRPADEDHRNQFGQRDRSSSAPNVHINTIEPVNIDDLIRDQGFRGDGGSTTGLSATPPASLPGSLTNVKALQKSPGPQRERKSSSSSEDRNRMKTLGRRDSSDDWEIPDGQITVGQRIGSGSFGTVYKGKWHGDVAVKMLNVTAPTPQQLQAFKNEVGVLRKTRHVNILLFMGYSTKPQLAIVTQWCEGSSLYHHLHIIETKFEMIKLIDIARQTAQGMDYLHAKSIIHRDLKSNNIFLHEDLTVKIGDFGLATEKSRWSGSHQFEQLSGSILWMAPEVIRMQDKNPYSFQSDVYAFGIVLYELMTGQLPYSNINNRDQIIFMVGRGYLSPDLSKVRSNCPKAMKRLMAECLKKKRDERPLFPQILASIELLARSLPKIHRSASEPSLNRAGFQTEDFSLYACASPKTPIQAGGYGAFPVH
Data set [27] can be described thus: Kinetic solubility of the compound. Format: physicochemical. The settings on record: read-out: Kinetic_solubility.
In data set [28] the target is Phosphatidylinositol 4-phosphate 3-kinase C2 domain-containing subunit beta (Homo sapiens) (UniProt O00750). Nature of the data set: Inhibition of PI3KC2b (unknown origin) at 10 uM.
Sequence of Phosphatidylinositol 4-phosphate 3-kinase C2 domain-containing subunit beta (Homo sapiens) (O00750 whole entry, the tested form may be a part, canonical isoform): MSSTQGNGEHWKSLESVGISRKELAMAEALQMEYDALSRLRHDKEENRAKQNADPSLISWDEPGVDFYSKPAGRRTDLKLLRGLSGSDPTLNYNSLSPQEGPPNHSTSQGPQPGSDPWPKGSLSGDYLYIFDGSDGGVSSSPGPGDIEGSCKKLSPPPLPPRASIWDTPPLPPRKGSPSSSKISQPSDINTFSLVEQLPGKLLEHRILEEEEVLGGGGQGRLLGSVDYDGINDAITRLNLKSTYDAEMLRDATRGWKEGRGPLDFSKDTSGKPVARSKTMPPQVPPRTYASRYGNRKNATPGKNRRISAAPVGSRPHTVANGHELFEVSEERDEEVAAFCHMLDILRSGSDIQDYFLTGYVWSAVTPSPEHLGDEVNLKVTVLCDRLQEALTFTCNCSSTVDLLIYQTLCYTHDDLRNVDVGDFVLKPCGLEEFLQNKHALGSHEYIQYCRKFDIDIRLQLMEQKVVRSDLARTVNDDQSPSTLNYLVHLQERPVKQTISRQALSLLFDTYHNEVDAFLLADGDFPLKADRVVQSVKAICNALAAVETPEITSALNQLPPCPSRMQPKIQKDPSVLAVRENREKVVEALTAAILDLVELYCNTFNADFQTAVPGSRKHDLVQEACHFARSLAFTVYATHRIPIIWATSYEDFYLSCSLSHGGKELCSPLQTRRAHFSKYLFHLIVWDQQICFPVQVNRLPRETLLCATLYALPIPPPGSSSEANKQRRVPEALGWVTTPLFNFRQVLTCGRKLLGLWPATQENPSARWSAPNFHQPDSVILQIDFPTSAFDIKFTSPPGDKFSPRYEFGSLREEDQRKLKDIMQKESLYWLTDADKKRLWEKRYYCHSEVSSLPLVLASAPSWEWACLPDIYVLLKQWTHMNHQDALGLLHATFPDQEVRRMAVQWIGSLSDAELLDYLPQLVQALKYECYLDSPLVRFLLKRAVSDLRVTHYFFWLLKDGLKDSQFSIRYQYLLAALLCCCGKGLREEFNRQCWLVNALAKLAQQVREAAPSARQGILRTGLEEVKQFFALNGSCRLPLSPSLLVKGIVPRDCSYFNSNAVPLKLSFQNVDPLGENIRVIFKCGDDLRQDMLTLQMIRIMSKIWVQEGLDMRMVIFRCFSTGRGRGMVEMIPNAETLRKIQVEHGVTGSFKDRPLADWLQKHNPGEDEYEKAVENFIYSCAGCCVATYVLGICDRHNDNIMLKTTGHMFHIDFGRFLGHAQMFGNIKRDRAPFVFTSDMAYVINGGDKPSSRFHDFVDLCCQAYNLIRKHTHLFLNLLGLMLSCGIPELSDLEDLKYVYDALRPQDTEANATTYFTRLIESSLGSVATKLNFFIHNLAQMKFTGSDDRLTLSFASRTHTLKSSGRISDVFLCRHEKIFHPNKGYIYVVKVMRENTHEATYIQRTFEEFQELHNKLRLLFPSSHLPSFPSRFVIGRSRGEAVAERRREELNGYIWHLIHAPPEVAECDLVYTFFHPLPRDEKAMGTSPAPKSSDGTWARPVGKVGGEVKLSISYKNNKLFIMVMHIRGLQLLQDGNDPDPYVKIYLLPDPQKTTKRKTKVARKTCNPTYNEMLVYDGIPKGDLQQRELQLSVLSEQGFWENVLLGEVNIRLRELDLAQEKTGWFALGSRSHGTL
For data set [29], the target named is Phosphatidylinositol 4,5-bisphosphate 3-kinase catalytic subunit alpha isoform (Homo sapiens, UniProt P42336). Nature of the data set: Inhibition of PI3Kalpha (unknown origin) assessed as formation of PIP3 by competitive fluorescence polarization assay. The following applies: read-out: Ki(app). Background: In fluorescence polarisation assays a small probe gives low polarisation when free and higher when bound to something large.
Sequence of Phosphatidylinositol 4,5-bisphosphate 3-kinase catalytic subunit alpha isoform (P42336 whole entry, canonical isoform): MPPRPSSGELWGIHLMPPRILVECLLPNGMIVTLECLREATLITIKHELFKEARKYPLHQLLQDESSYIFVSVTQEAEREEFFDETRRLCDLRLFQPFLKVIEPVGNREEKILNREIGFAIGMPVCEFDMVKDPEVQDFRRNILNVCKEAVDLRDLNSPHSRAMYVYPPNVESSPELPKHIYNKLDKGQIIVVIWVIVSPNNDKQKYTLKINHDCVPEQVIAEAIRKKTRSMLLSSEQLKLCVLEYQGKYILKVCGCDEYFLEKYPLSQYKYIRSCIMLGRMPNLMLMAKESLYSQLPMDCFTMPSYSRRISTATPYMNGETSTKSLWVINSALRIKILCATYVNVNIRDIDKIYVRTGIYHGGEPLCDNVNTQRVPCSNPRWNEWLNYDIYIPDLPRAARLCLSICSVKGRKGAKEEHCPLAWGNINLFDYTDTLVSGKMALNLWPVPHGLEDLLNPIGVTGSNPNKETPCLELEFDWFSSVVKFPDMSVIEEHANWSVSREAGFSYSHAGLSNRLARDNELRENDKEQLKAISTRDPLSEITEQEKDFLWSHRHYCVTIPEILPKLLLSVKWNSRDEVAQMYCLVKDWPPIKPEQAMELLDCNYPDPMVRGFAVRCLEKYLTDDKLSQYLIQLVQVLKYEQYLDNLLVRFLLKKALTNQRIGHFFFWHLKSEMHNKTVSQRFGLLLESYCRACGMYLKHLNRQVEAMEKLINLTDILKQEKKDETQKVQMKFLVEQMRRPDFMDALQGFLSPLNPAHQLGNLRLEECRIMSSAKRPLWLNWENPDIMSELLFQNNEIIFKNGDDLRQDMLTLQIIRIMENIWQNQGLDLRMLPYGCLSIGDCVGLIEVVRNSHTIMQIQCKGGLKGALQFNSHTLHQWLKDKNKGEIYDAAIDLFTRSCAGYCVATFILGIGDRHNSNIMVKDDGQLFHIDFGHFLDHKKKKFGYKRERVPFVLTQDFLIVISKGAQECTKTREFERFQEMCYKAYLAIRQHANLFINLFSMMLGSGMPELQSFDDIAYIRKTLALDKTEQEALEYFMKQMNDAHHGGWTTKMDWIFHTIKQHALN

SMILES strings stand for the structures. ≈ marks a conversion by molar mass, not a printed value.

Sequence of Maternal embryonic leucine zipper kinase (Homo sapiens) (Q14680 whole entry, looked up): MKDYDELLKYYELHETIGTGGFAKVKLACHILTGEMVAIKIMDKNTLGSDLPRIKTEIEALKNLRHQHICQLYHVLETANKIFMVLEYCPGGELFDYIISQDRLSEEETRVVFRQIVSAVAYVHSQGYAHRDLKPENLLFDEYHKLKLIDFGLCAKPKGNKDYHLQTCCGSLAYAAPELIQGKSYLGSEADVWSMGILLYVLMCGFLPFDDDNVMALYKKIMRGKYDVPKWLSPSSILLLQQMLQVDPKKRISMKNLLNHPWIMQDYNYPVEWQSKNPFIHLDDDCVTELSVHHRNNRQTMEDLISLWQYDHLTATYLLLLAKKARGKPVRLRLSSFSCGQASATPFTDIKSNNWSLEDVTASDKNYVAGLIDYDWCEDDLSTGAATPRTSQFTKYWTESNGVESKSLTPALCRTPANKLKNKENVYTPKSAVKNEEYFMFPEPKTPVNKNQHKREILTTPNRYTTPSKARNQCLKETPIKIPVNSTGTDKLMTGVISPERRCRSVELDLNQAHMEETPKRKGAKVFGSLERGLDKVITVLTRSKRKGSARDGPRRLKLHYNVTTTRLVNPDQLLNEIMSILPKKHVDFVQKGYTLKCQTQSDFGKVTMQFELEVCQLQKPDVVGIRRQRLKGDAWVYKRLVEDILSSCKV
Sequence of Serine/threonine-protein kinase B-raf (Homo sapiens) (P15056 whole entry): as the sequence (P15056 whole entry V600E) above, with E600V counted along it

For the molecule `Cn1c(CN2CCC(C(C)(C)O)CC2)nc2c(N3CCOCC3)nc(-c3cccc4[nH]ncc34)nc21`, the Ki in data set [1] is 2.3 nM.

For `CCc1nc2ccccc2n1-c1nc(N2CCOCC2)c2nc(CN3CCC(C(C)(C)O)CC3)n(C)c2n1`, the Activity entry (in data set [2]; with CHO-K1) was “Toxic” in each case.

For the molecule `Cc1nc2ccccc2n1-c1nc(N2CCOCC2)c2nc(CN3CCC(C(C)(C)O)CC3)n(C)c2n1`, the Activity result (in [2]; in the data set with CHO-K1) was “Toxic” each time.

Regarding `CCc1nc2ccccc2n1-c1nc(N2CCOCC2)c2nc(N(C)C3CN(C4CCS(=O)(=O)CC4)C3)n(C)c2n1`, the IC50 – broadly, the concentration at which inhibition is half-maximal – in data set [3] was found to be 1.79 nM. Also, the Ki in data set [1] came out at 0.59 nM.

`Cn1c(CN2CCC(C(C)(C)O)CC2)nc2c(N3CCOCC3)nc(-n3c(C4CC4)nc4ccccc43)nc21`: the Activity entry in data set [2] is given as “Toxic”; in the data set with CHO-K1 it was “Non-toxic”.

As to `CC(C)c1nc2ccccc2n1-c1nc(N2CCOCC2)c2nc(OC3CN(C4CCS(=O)(=O)CC4)C3)n(C)c2n1`, the peak concentration (Cmax) (commonly the maximum level reached in the sampled fluid or tissue) was determined as 1740 nM in data set [4], 8810 nM in [8] and 1180 nM in data set [19]. In addition, the half-life (in general, how long it takes for the measured level to halve) in data set [5] is 2.59 h; in [11], 11.6 h. Further, the clearance – broadly, the volume of plasma or blood freed of the substance per unit of time – in data set [6] turned out to be 19.4 mL/min/kg; in data set [13], 2.3 mL/min/kg. Moreover, the Activity in [7] amounted to 2%; in data set [22], 6.8%. The bioavailability – broadly, the share of a dose that reaches the circulation, judged against a reference dose that is usually intravenous – in data set [9] worked out at 82.6%; in data set [10] it was 96.2%; in data set [21], 100%. Further, the IC50 in [3] was found to be 4.38 nM. In addition, the fraction unbound in data set [12] was 0.2; in data set [23], 0.183. Further, the inhibition (in general, the change of the read-out against control, counted positive when it falls) is 61% in data set [14] and 71% in [16]. Further, the exposure (AUC) (usually the area under the concentration-time curve, a measure of exposure) in data set [15] was determined as 7.23 µM·h; in data set [20], 128 µM·h; in data set [24], 21.1 µM·h. Moreover, the Vd in [17] worked out at 3.6 L/kg; in [18], 2.2 L/kg. For the same molecule, in data set [1], the Ki is 0.47 nM.

For `CC(C)(O)C1CCN(Cc2cc3nc(-c4cccc5[nH]ncc45)nc(N4CCOCC4)c3s2)CC1`, the Activity result (in data set [2]; in the data set on CHO-K1) was “Non-toxic” each time. The Ki in [1] amounted to 1.1 nM.

On to `CC(C)c1nc2ccccc2n1-c1nc(N2CCOCC2)c2nc(CN3CCC(C(C)(C)O)CC3)n(C)c2n1`, for which the inhibition in data set [25] came to 63%; in data set [26], 53%; in data set [28], 72%. For the same molecule, the figures for the Activity result (in data set [2]; in the data set on CHO-K1) were “Toxic” and “Non-toxic”, respectively. Further, the solubility kinetic in [27] came to 32 µM (≈ 17 µg/mL).

For `CCc1nc2ccccc2n1-c1nc(N2CCOCC2)c2nc(NC3CN(C4CCS(=O)(=O)CC4)C3)n(C)c2n1`, in [3], the 50% inhibitory concentration (IC50) amounted to 80.2 nM. Moreover, in data set [1], the Ki was 0.9 nM.

Consider `CCc1nc2ccccc2n1-c1nc(N2CCOCC2)c2nc(CC3CN(C(=O)C(C)C)C3)n(C)c2n1`, for which the 50% inhibitory concentration (IC50) in data set [3] was 9.96 nM. Besides, in data set [1], the Ki was found to be 0.36 nM.

Consider `CNc1nc2ccccc2n1-c1nc(N2CCOCC2)c2nc(CN3CCC(C(C)(C)O)CC3)n(C)c2n1`, for which, in the data set with CHO-K1, the Activity entry is recorded as “Toxic”.

As to `CCc1nc2ccccc2n1-c1nc(N2CCOCC2)c2sc(C(=O)N3CCN(C(C)(C)C(N)=O)CC3)c(C)c2n1`, the Ki came out at 157 nM in data set [29] and 12.7 nM in [1].

For the molecule `CCc1nc2ccccc2n1-c1nc(N2CCOCC2)c2nc(C(=O)N3CCC(C(C)(C)O)CC3)n(C)c2n1`, the IC50 in [3] was 52.8 nM. For the same molecule, the Ki in data set [1] was found to be 3.1 nM.

For the molecule `CCc1nc2ccccc2n1-c1nc(N2CCOCC2)c2nc(C(=O)N3CCN(C(C)(C)C(N)=O)CC3)n(C)c2n1`, the figures for the Ki in data set [29] and in [1] were 236 nM and 0.8 nM, respectively.

`CCc1nc2ccccc2n1-c1nc(N2CCOCC2)c2nc(CC3CN(C4CCS(=O)(=O)CC4)C3)n(C)c2n1`: the clearance in data set [6] was found to be 63 mL/min/kg. In addition, the IC50 in data set [3] was determined as 4.02 nM. For the same molecule, the Ki in data set [1] worked out at 0.23 nM.

For the molecule `CCc1nc2ccccc2n1-c1nc(N2CCOCC2)c2sc(CN3CCC(C(C)(C)O)CC3)cc2n1`, the Activity result (in data set [2]; in the data set with CHO-K1) was “Non-toxic” throughout.

Consider `CCc1nc2ccccc2n1-c1nc(N2CCOCC2)c2nc(NC3CN(C(=O)C(C)C)C3)n(C)c2n1`, for which the Ki in data set [1] came to 0.88 nM.

The record behind these values is ChEMBL document CHEMBL2413047, “Identification of GNE-293, a potent and selective PI3Kδ inhibitor: navigating in vitro genotoxicity while improving potency and selectivity” (Bioorg Med Chem Lett, 2013).
